From patent publication US20200179312A1, “ANALOGUES OF CYSTEAMINE AS THERAPEUTIC AGENTS FOR CYSTIC FIBROSIS” (I.E.R.F.C. EUROPEAN INSTITUTE FOR CYSTIC FIBROSIS RESEARCH, priority 2018, published 2020) come the findings set out here.

The target of one test is F508delCFTR (Homo sapiens, UniProt P13569, DEL508-508). In words: SPQ assay in CFBE41o- cells transfected with F508delCFTR. In kind it is cell-based. Further details: expressed in transfected cells; host or cells: CFBE41o- cells. The method, then: The compounds of formula I have marked effects on CFTR function. A representative number of compounds of formula I (Compounds IE1-IE4; Table I) were tested in comparison to cysteamine and amifostine through SPQ assay in F508delCFTR homozygous bronchial epithelial cell lines (CFBE41o-) transfected with F508delCFTR (FIG. 1) and in ex vivo in nasal cells collected by nasal brushing from CF patients (FIGS. 2A and B). Cell lines experiments. CFBE41l- and 16HBE14o-cells were cultured in Minimum Essential Medium (MEM) with Earle's salt, 200 mM L-Glutamine, 10% FBS and penicillin/streptomycin. CFBE41o-cells were transfected with AF508-CFTR at 37° C. and incubated for 18 h with cysteamine (250 μM) or different concentration of IE1.

For another test, the target named is T1, CFTR (Mus musculus, UniProt P26361, DEL508-508).
T1 construct: the Ussing chamber experiments (on small intestinal tissues); from tissue; host or cells: small intestine (Ussing chamber); lung and small intestine homogenates (immunoblot) of CftrF508del mice
In words: Ussing chamber CFTR function in CftrF508del mice. Format: in vivo. The method, then:
Driven by the positive outcome of the cell lines (immortalized and primary nasal cell) experiments, we next investigated the possibility that IE1 could rescue the CFTR protein and function as well as re-establish the autophagy pathway in CF mice model. To test this hypothesis, we used F508del-Cftr homozygous (CftrF508del\F508del) mice and control mice (Cftr WT). CftrF508del mice were administered intraperitoneally (i.p.) for 5 d with cysteamine or different concentrations of IE1 (FIG. 7). […] Next, CftrF508del mice were administered intraperitoneally (i.p.) for 5 d with cysteamine or with 3 different concentrations of IE1 (0.05M, 0.025M or 0.0125M) followed by 10 d or 20 d of vehicle only (FIG. 9).
CF mice homozygous for the delF508-CFTR mutation (abbreviated CftrF508del) in the 129/FVB outbred background (CftrtmlEUR, F508del, FVB/129) were obtained from Erasmus Medical Center Rotterdam, The Netherlands (CF coordinated action program EU FP6 LSHM-CT-2005-018932). These studies and procedures were approved by the local Ethics Committee for Animal Welfare (IACUC No 713). Young adult CF mice and their wild-type (wt) littermates were housed in static isolator cages at the animal care specific pathogen-free facility of Charles River (Calco, Italy). […]

The target of a further test is T2, TG2 (Homo sapiens, UniProt P21980).
T2 sequence (P21980 1-687): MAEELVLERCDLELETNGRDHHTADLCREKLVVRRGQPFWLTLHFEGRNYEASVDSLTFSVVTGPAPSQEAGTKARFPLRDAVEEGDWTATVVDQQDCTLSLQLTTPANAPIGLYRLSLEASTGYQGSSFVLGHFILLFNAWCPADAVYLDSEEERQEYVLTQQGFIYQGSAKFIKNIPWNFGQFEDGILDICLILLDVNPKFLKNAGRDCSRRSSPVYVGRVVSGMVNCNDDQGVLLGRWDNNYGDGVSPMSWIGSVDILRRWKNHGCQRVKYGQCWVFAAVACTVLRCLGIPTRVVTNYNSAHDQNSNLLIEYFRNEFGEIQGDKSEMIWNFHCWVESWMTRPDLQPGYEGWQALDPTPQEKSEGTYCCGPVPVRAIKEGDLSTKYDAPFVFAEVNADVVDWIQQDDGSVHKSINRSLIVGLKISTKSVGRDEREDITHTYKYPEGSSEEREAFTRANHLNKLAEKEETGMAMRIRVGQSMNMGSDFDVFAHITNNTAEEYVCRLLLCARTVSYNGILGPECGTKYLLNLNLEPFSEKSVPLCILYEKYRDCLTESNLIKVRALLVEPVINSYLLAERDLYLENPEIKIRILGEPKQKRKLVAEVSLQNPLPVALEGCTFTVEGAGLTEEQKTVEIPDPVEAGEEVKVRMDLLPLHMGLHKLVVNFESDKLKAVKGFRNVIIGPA
In words: Inhibition of the PDI activity of TG2. In kind it is biochemical.

Chain of F508delCFTR (P13569 with tags, fused parts or gaps DEL508-508): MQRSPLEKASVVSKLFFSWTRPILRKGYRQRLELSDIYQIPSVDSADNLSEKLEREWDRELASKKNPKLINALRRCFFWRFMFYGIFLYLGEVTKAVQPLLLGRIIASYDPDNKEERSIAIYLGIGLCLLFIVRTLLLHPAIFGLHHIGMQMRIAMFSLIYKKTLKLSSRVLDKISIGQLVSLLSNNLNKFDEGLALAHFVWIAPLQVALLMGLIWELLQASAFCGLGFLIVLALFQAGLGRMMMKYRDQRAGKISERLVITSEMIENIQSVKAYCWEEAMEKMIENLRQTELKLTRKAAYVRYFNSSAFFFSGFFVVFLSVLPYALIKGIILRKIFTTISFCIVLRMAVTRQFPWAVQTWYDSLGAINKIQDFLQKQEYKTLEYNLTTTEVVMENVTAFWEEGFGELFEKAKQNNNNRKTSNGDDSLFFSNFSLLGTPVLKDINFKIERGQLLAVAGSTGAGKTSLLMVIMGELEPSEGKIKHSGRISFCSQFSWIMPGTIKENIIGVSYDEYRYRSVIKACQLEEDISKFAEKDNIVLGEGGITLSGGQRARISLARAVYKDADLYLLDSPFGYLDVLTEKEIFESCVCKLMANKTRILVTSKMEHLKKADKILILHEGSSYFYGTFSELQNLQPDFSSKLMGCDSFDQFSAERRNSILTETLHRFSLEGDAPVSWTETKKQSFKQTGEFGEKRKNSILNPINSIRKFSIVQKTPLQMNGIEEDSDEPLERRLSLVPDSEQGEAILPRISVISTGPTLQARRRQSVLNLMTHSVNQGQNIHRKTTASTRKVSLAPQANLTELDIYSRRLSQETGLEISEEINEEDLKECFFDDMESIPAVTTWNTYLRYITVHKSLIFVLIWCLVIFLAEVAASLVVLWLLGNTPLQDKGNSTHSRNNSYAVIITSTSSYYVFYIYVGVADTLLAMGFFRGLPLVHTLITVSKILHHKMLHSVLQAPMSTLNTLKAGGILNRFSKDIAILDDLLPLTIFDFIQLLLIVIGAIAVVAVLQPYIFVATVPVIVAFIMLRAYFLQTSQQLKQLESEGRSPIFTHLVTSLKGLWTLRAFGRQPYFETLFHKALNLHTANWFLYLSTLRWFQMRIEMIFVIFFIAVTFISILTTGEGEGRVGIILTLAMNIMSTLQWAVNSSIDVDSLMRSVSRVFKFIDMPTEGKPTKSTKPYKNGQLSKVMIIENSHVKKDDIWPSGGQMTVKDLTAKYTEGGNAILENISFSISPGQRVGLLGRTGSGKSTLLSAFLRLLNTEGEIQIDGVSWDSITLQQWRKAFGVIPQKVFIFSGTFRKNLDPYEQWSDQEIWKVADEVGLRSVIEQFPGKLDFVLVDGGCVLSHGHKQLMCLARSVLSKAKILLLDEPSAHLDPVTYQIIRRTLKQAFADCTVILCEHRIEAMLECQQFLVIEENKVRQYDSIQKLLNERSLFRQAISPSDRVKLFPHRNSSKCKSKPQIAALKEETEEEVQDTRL
T1 sequence (P26361 with tags, fused parts or gaps DEL508-508): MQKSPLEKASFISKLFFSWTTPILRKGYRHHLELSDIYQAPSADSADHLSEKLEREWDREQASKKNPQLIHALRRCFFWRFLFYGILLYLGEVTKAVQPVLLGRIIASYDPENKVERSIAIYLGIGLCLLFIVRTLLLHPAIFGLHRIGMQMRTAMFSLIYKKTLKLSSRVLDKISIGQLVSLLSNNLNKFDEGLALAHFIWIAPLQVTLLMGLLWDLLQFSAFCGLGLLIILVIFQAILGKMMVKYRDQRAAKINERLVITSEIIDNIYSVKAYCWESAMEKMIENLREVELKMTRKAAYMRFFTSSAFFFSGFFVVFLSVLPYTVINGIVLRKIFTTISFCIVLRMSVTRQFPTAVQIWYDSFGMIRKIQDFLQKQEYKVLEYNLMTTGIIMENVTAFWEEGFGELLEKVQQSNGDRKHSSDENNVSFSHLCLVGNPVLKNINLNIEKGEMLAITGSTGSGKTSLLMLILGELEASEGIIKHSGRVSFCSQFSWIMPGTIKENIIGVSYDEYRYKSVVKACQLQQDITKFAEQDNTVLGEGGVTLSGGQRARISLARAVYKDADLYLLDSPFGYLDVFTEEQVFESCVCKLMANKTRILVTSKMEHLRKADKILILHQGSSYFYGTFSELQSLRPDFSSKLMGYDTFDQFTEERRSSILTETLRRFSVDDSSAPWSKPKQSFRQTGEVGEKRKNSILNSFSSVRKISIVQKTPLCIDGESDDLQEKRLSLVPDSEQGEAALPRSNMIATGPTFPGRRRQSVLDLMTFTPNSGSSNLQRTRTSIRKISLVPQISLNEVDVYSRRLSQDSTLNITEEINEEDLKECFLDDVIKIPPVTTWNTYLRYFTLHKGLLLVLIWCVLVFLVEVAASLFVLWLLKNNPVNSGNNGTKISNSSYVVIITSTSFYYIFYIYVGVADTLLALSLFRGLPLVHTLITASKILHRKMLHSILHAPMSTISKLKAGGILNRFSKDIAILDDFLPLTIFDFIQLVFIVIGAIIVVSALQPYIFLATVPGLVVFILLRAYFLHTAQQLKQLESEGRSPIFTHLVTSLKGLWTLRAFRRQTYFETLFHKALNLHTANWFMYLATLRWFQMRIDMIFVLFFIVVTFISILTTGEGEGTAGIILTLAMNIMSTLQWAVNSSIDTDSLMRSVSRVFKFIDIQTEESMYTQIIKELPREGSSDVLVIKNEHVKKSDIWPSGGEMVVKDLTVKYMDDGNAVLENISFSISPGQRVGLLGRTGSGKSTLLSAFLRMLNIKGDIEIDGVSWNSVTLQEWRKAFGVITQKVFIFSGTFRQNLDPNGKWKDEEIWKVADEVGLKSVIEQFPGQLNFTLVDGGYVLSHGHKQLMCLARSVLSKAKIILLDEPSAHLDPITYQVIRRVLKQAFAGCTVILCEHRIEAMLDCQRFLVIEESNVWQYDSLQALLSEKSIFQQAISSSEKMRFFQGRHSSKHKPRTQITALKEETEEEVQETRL

For the molecule `NCCCS` [IE1, 3-aminopropane-1-thiol], the “Concentration lower than cysteamine for equal restoration of CFTR function” value on F508delCFTR (0.1 μM vs 250 μM) is recorded as “more than 2500 fold”. For the same molecule, the “% Function vs 16HBE” value at F508delCFTR (0.1 μM, CFBE41o- transfected with F508delCFTR) worked out at 72%. For the same molecule, the “CFTR function after wash out with EGCG added” value at F508delCFTR (48 h after wash out, epigallocatechin gallate added, CFBE cells) was “effect is preserved”. Besides, the “CFTR function after wash out” value at F508delCFTR (48 h after wash out, CFBE cells) is “loses its efficacy”; on F508delCFTR (up to 24 h after wash out, CFBE cells), “able to maintain CFTR function”. In addition, the “Sustaining CFTR function after wash out, compared with cysteamine” value on CFTR (i.p. 5 d at 0.05M, 0.025M or 0.0125M, then 20 d of vehicle only) is reported as “more effective than cysteamine”. The “Rescue of CFTR function (Ussing chamber, small intestinal tissues)” value at CFTR (i.p. for 5 d, IE1 concentration 0.05 to 0.00125) was “highly effective”. In addition, on TG2, the “Ability to inhibit the PDI activity of TG2” value is given as “confirmed”.
